Test [1] concerns RhoA. As to the kind of experiment: RhoA G-LISA Activation Assay. The note with it: RhoA Activator for 40 min after 48 hr isoquercitrin incubation (control). The format is cell-based. The procedure: FIG. 6 illustrates RhoA activation. […] RhoA activity is depressed following administration of isoquercitrin for 48 hrs.
(§1) Cell culture. The NG108-15 neuroblastoma/glioma cells and ND7/23 rat DRG/mouse neuroblastoma cells were seeded at 10^4 cells/cm^2 on laminin coated wells and stimulated for 48 hours with 40 μM isoquercitrin (Cat No 00140585, Sigma) alone or in combination with either 10 μM Rho Kinase inhibitor Y-27632 (Cat No Y0503, Sigma) or 0.25 μg/ml Rho inhibitor Exoenzyme C3 Transferase (Cat No CT04, Cytoskeleton). Later, isoquercitrin stimulated cells were incubated with 0.2 unit/ml Rho Activator Calpeptin (Cat No CN01, Cytoskeleton) or, alternatively with 0.25 μM Phospholipase C inhibitor U73122 (Cat No 662035, Calbiochem). Live Cell Imaging. During incubation, cells were observed by time-lapse live cell imaging with Cell-IQ (Chip-Man Technologies, Ltd). Quantitative analysis of neurite length/cell was performed using Cell-IQ Analyser Software. Cell imaging by Immunofluorescence. […] The plate was incubated with an HRP detection reagent for 15 min at 37° C. and, after addition of an HRP stop buffer, the absorbance was immediately recorded at 490 nm. […] The purity and concentration were determined using a Nanoprop ND 1000 (Nanoprop Technologies, Delaware, USA) and a Bioanalyzer 2100 (Agilent, Waldbronn, Germany). […]

The subject of test [2] is PC3 human prostatic cancer cells, NIH 3T3 fibroblasts, and podocytes. As to conditions: PC3, NIH 3T3 fibroblasts, references [6-8]; cited from earlier work.
Test [3] deals with NG108-15 neuroblastoma-glioma hybridoma cells and the ND7/23 neural cell line. Kind of test: Incubation of neural cell lines with 15 flavonoids, neurite formation. As to conditions: for neurite formation: screen of 15 flavonoids, NG108-15 and ND7/23 cells. The format is cell-based. The protocol:
as §1, with “Immunofluorescence. Cells were cultured for 48 hrs on a Chamber Slide™ System (Lab-Tek™) under the above described conditions. Then, the cells were fixed and permeabilized with 4% formaldehyde/0.1% Triton X100 in PBS for 20 min at 4° C. After blocking with PBS containing 20% FBS and 5% BSA for 1 h at room temperature, they were incubated with mAb anti-synaptotagmin-1 (1:200, SY Synaptic Systems) for 1 hr at room temperature. Following three washes in PBS, cells were incubated with Alexa Fluor® 488 goat anti-mouse IgG/IgM (Invitrogen) for 30 min at room temperature. Afterwards, cells were incubated with 0.13 μg/ml phalloidin in the dark for 30 min at 4° C. Finally DAPI was added and last 30 min. Samples were rinsed three times and kept in PBS. The imaging was performed using Confocal Laser Scanning Microscope (Carl Zeiss AG). Assay for RhoA activation.” for “Immunofluorescence.”

Test [4] concerns PC 12 cells. The note with it: via the ERK pathway, reference [1]; cited from earlier work.
The subject of test [5] is NG108 cells. Kind of test: Microarray gene expression analysis (whole Mouse Genome 4x44k OligoMicroarrays). Format: cell-based. The note with it: 40 uM isoquercitrin. The procedure:
Cell culture. The NG108-15 neuroblastoma/glioma cells and ND7/23 rat DRG/mouse neuroblastoma cells were seeded at 10^4 cells/cm^2 on laminin coated wells and stimulated for 48 hours with 40 μM isoquercitrin (Cat No 00140585, Sigma) alone or in combination with either 10 μM Rho Kinase inhibitor Y-27632 (Cat No Y0503, Sigma) or 0.25 μg/ml Rho inhibitor Exoenzyme C3 Transferase (Cat No CT04, Cytoskeleton). Later, isoquercitrin stimulated cells were incubated with 0.2 unit/ml Rho Activator Calpeptin (Cat No CN01, Cytoskeleton) or, alternatively with 0.25 μM Phospholipase C inhibitor U73122 (Cat No 662035, Calbiochem). Live Cell Imaging. During incubation, cells were observed by time-lapse live cell imaging with Cell-IQ (Chip-Man Technologies, Ltd). Quantitative analysis of neurite length/cell was performed using Cell-IQ Analyser Software. Cell imaging by Immunofluorescence. Cells were cultured for 48 hrs on a Chamber Slide™ System (Lab-Tek™) under the above described conditions. Then, the cells were fixed and permeabilized with 4% formaldehyde/0.1% Triton X100 in PBS for 20 min at 4° C. After blocking with PBS containing 20% FBS and 5% BSA for 1 h at room temperature, they were incubated with mAb anti-synaptotagmin-1 (1:200, SY Synaptic Systems) for 1 hr at room temperature. Following three washes in PBS, cells were incubated with Alexa Fluor® 488 goat anti-mouse IgG/IgM (Invitrogen) for 30 min at room temperature. Afterwards, cells were incubated with 0.13 μg/ml phalloidin in the dark for 30 min at 4° C. Finally DAPI was added and last 30 min. Samples were rinsed three times and kept in PBS. The imaging was performed using Confocal Laser Scanning Microscope (Carl Zeiss AG). Assay for RhoA activation. For RhoA activation assay, the procedure followed the manufacture's instruction regarding RhoA G-LISA™ Activation Assay (Cytoskeleton). Briefly, grown cells were homogenized in a lysis buffer and were centrifuged at 14,000 rpm for 2 min. The supernatants, containing equal amount of proteins (60 μg/30 μl), were transferred into a 96 well plate and equal volumes of ice-cold binding buffer were added into each well. The plate was incubated for 30 min under shaking (400 rpm) at 4° C. Then they were incubated with diluted anti-RhoA primary antibodies followed by secondary antibodies while shaking (400 rpm) at room temperature for 45 min each. The plate was incubated with an HRP detection reagent for 15 min at 37° C. and, after addition of an HRP stop buffer, the absorbance was immediately recorded at 490 nm. Microarray and RT-PCR. Total cellular RNA was isolated using the RNAeasy spin columns with the DNAse digestion step. The purity and concentration were determined using a Nanoprop ND 1000 (Nanoprop Technologies, Delaware, USA) and a Bioanalyzer 2100 (Agilent, Waldbronn, Germany). All samples had 260/280 nm ratio above 1.8 and a 28S/18S ratio within 1.5-2. RNA (600 ng) was reverse transcribed into double-stranded complementary DNA (ds-cDNA) in the presence of RNA poly-A controls, RNA Spike-In Kit, Two-Color. The ds-cDNA was in vitro transcribed in the presence of Cy3 (control) and Cy5 (flavonoid-stimulated) labelled nucleotides using a Quick Amp labelling, two-color kit (Agilent P/N 5190-0444, Waldbronn, Germany). Transcription products (1.65 μg) were blocked, fragmented and hybridized to whole Mouse Genome 4×44k OligoMicroarrays (Agilent G4122F) for 17 h at 65° C. Arrays were then washed according to the manufacturer instructions and an Agilent Microarray Scanner used to measure the fluorescent intensity emitted by the labeled target. Total RNA was also reverse transcribed using oligo-dT primer and Superscript III enzyme (Invitrogen). […]

Each structure is given as a SMILES string.

Data on five molecules can be found in US20120087980A1, “STIMULATION OF NEUROREGENERATION BY FLAVONOID GLYCOSIDES” (priority 2010, published 2012).

For `CCCC[C@@H](C=O)NC(=O)[C@H](CC(C)C)NC(=O)OCc1ccccc1` [RhoA Activator], the “RhoA activation (G-LISA) after RhoA Activator” value in test [1] is reported as “increases RhoA activation”.
As to `C[C@@H](N)[C@H]1CC[C@H](C(=O)Nc2ccncc2)CC1` [Y-27632], in test [2], the “cell morphology on ROCK inhibition” value was “elongated morphology”.
In the case of `O=c1c(O)c(-c2ccc(O)c(O)c2)oc2cc(O)ccc12` [fisetin], the neurite formation result in test [3] is “significant neurites”. For the same molecule, the “neurite outgrowth in PC 12 cells” value in test [4] was “induce neurite outgrowth”.
On to `O=c1c(O[C@@H]2O[C@H](CO)[C@@H](O)[C@H](O)[C@H]2O)c(-c2ccc(O)c(O)c2)oc2cc(O)cc(O)c12` [isoquercitrin, quercetin-3-β-D-glycoside], for which the “persistence of neurite networks” value in test [3] (in comparison to the other substances tested) was “up to 4 days of culture”. In addition, in test [5], the “Fold-change, GABA A receptor-associated protein-like 1 Gene” value turned out to be 2.361; the “Fold-change, calcium and integrin binding 1 (calmyrin) Gene” value amounted to 1.297; the “Fold-change, cholinergic receptor, nicotinic, alpha polypeptide 10 Gene” value was determined as 1.438; the “Fold-change, cortactin binding protein 2 Gene” value is given as 1.518. Also, in test [5], the “Fold-change, dopamine receptor 4 Gene” value came out at 1.248; the “Fold-change, glutamate receptor, ionotropic, N-methyl D-aspartate-associated protein 1 Gene” value is given as 1.595; the “Fold-change, neural proliferation, differentiation and control gene 1 Gene” value is on record as 1.385; the “Fold-change, neuroligin 2 Gene” value turned out to be 1.266. For the same molecule, in test [5], the “Fold-change, neurotrophin 5 Gene” value came out at 1.325; the “Fold-change, protein kinase C and casein kinase substrate in neurons 1 Gene” value is 1.398; the “Fold-change, reticulon 3 Gene” value was found to be 1.316; the “Fold-change, synapsin I Gene” value was 1.287. Moreover, in test [5], the “Fold-change, synapsin II Gene” value is 1.518; the “Fold-change, synaptogyrin 1 Gene” value is on record as 2.130; the “Fold-change, synaptopodin 2-like Gene” value came to 1.393; the “Fold-change, synaptotagmin I Gene” value is listed as 1.934. In test [5], the “Fold-change, synaptotagmin IV Gene” value came to 1.825 and the “Fold-change, synaptotagmin XI Gene” value was 1.913.
Regarding `O=c1c(O)c(-c2ccc(O)cc2)oc2cc(O)cc(O)c12` [kaempferol], the neurite formation entry in test [3] is “significant neurites”.
